Test results as given in patent publication US7022843B1, “β,β′-dihydroxy meso-substituted chlorins, isobacteriochlorins, and bacteriochlorins” (priority 1999, dated 2006).
Where “and” joins values, the source holds several entries; their conditions need not be identical. Equal values may be shown once.

Columns and labels:
tumors [1] = settings: in sensitizing tumors; cited from earlier work
L1210 cells [2] = experiment: Phototoxicity in L1210 cells, MTT viability assay; assay type: cell-based; settings: for LD50: phototoxicity
Procedure: The above described compounds were tested in vitro for phototoxicity and dark toxicity in L1210 cells as described in the Example section below. Twenty four compounds which were tested for cytotoxicity are listed in Table 3 below along with BPD-MA.
(§1) Phototoxicity was determined with L11210 cells in the presence of the compound as follows: the L1210 cells were exposed to varying concentrations of the compounds in 96-well microtiter plates for one hour at 37° C. and 5% CO2. No fetal calf serum (FCS) was added at this time. The plate was then illuminated for one hour after which a 10% aqueous FCS solution was added to the wells. The plates were then returned to the CO2 incubator overnight. After incubation, the cells were assayed for viability using the MTT assay (Mossman, T. J. Immunol. Meth. 1983, 65, 55).

L1210 cells [3] = experiment: Dark cytotoxicity in L1210 cells (plates wrapped in aluminum foil); assay type: cell-based; settings: for LD20dark: L1210 cells, absence of light
Procedure: The above compounds were also tested for dark toxicity. Dark toxicity refers to the toxicity of the drug to cells in the absence of light. This toxicity is, therefore, not due to singlet oxygen mediated cellular damage.
as §1
Dark cytotoxicity was determined while the plates were wrapped in aluminum foil while under the light source.

tumor = settings: in vivo; cited from earlier work
tumors [4] = settings: cited from earlier work
serum proteins = settings: normal dose used for PDT (3–5 mg/kg body weight); cited from earlier work
[5] = L1210 cells, 1 h exposure without FCS, 1 h illumination, MTT

C=Cc1c(C)c2cc3nc(cc4[nH]c(cc5nc(cc1[nH]2)C(C)=C5CCC(=O)O)c(CCC(=O)OC)c4C)C1(C)C3=CC=C(C(=O)OC)C1C(=O)OC (stereo not shown) [BPDMA, reference compound]
times more potent than HpD (tumors [1]): 70
times more potent than Photofrin™ (tumors [1]): 45
LD50 (L1210 cells [2]): 0.026 µM
LD50 (L1210 cells [2]; [5]): 0.026 M and 19 ng/mL
LD50 (L1210 cells [2]; L1210 cells, 1 h exposure without FCS, 1 h illumination, MTT, listed as BPD-MA): 19 ng/mL

COc1cc(OC)cc(-c2c3nc(c(-c4cc(OC)cc(OC)c4)c4ccc([nH]4)c(-c4cc(OC)cc(OC)c4)c4nc(c(-c5cc(OC)cc(OC)c5)c5ccc2[nH]5)C(O)C4O)C=C3)c1 (stereo not shown) [Compound 16, T(m,m′-OCH3)PC(OH)2]
LD50dark (L1210 cells [3]): 12000 ng/mL
LD20dark (L1210 cells [3]): 5000 ng/mL
LD50 (L1210 cells [2]; [5]): 2.25 M and 2000 ng/mL
LD50 (L1210 cells [2]; L1210 cells, Table 4): 2000 ng/mL

COc1cc(-c2c3nc(c(-c4ccc(O)c(OC)c4)c4ccc([nH]4)c(-c4ccc(O)c(OC)c4)c4nc(c(-c5ccc(O)c(OC)c5)c5ccc2[nH]5)C(O)C4O)C=C3)ccc1O (stereo not shown) [Compound 17, T(m-OCH3,p-OH)PC(OH)2]
LD50dark (L1210 cells [3]): 4500 ng/mL
LD20dark (L1210 cells [3]): 500 ng/mL
LD50 (L1210 cells [2]; [5]): 0.0361 M and 30 ng/mL
LD50 (L1210 cells [2]; L1210 cells, Table 4): 30 ng/mL

COc1cc(-c2c3nc(c(-c4cc(OC)c(OC)c(OC)c4)c4ccc([nH]4)c(-c4cc(OC)c(OC)c(OC)c4)c4nc(c(-c5cc(OC)c(OC)c(OC)c5)c5ccc2[nH]5)C(O)C4O)C=C3)cc(OC)c1OC (stereo not shown) [Compound 18, T(m,p,m′-OCH3)PC(OH)2]
LD50dark (L1210 cells [3]): 20000 ng/mL
LD20dark (L1210 cells [3]): 7500 ng/mL
LD50 (L1210 cells [2]; [5]): 0.0198 M and 20 ng/mL
LD50 (L1210 cells [2]; L1210 cells, Table 4): 20 ng/mL

Cc1ccc(-c2c3nc(c(-c4ccc(C)cc4)c4ccc([nH]4)c(-c4ccc(C)cc4)c4nc(c(-c5ccc(C)cc5)c5ccc2[nH]5)C(O)C4O)C=C3)cc1 (stereo not shown) [Compound 21, T(p-CH3)PC(OH)2]
LD50dark (L1210 cells [3]): 15000 ng/mL
LD20dark (L1210 cells [3]): 5000 ng/mL
LD50 (L1210 cells [2]; [5]): 9.94 M and 7000 ng/mL
LD50 (L1210 cells [2]; L1210 cells, Table 4): 7000 ng/mL

Cc1cc(C)c(-c2c3nc(c(-c4c(C)cc(C)cc4C)c4ccc([nH]4)c(-c4c(C)cc(C)cc4C)c4nc(c(-c5c(C)cc(C)cc5C)c5ccc2[nH]5)C(O)C4O)C=C3)c(C)c1 (stereo not shown) [Compound 22, T(o,p,o′-CH3)PC(OH)2]
LD50dark (L1210 cells [3]): 18000 ng/mL
LD20dark (L1210 cells [3]): 7500 ng/mL
LD50 (L1210 cells [2]; [5]): 12.3 M and 10000 ng/mL
LD50 (L1210 cells [2]; L1210 cells, Table 4): 10000 ng/mL

O=S(=O)(O)c1ccc(-c2c3nc(c(-c4ccc(S(=O)(=O)O)cc4)c4ccc([nH]4)c(-c4ccc(S(=O)(=O)O)cc4)c4nc(c(-c5ccc(S(=O)(=O)O)cc5)c5ccc2[nH]5)C(O)C4O)C=C3)cc1 (stereo not shown) [Compound 23, T(p-SO3H)PC(OH)2]
LD50dark (L1210 cells [3]): >>20000 ng/mL
LD20dark (L1210 cells [3]): >20000 ng/mL
LD50 (L1210 cells [2]; [5]): 1.11 M and 1000 ng/mL
LD50 (L1210 cells [2]; L1210 cells, Table 4): 1000 ng/mL

CC(C)(C)c1ccc(-c2c3nc(c(-c4ccc(C(C)(C)C)cc4)c4ccc([nH]4)c(-c4ccc(C(C)(C)C)cc4)c4nc(c(-c5ccc(C(C)(C)C)cc5)c5ccc2[nH]5)C(O)C4O)C=C3)cc1 (stereo not shown) [Compound 24, T(p-t-Bu)PC(OH)2]
LD50dark (L1210 cells [3]): 7000 ng/mL
LD20dark (L1210 cells [3]): 2000 ng/mL
LD50 (L1210 cells [2]; [5]): 6.88 M and 6000 ng/mL
LD50 (L1210 cells [2]; L1210 cells, Table 4): 6000 ng/mL

OC1c2cc3ccc([nH]3)c(-c3ccccc3)c3nc(cc4ccc([nH]4)c(-c4ccccc4)c(n2)C1O)C=C3 (stereo not shown) [Compound 25, diphenyl-2,3-dihydroxychlorin]
LD50dark (L1210 cells [3]): 5000 ng/mL
LD20dark (L1210 cells [3]): 1500 ng/mL
times more potent than BPD-MA (L1210 cells [2]; fold potency based on LD50): 10
times more potent than HpD (L1210 cells [2]; fold potency based on LD50): 700
times more potent than Photofrin™ (L1210 cells [2]; fold potency based on LD50): 450
LD50 (L1210 cells [2]; [5]): 0.0024 M and 1.2 ng/mL
LD50 (L1210 cells [2]; L1210 cells, 1 h exposure without FCS, 1 h illumination, MTT, listed as diphenyl-2,3-dihydroxychlorin): 1.2 ng/mL
LD50 (L1210 cells [2]; L1210 cells, Table 4): 1.2 ng/mL

Oc1ccc(-c2c3nc(c(-c4ccccc4)c4ccc([nH]4)c(-c4ccccc4)c4nc(c(-c5ccccc5)c5ccc2[nH]5)C=C4)C(O)C3O)cc1 (stereo not drawn) [Compound 27, meso-5-(p-hydroxyphenyl)-10,15,20-triphenyl-2,3-dihydroxychlorin]
LD50dark (L1210 cells [3]): 9000 ng/mL
LD20dark (L1210 cells [3]): 2000 ng/mL
LD50 (L1210 cells [2]; [5]): 0.0211 M and 14 ng/mL
LD50 (L1210 cells [2]; L1210 cells, Table 4): 14 ng/mL

O=[N+]([O-])c1ccc(-c2c3nc(c(-c4ccccc4)c4ccc([nH]4)c(-c4ccccc4)c4nc(c(-c5ccccc5)c5ccc2[nH]5)C=C4)C(O)C3O)cc1 (stereo not drawn) [Compound 28, meso-5-(p-nitrophenyl)-10,15,20-triphenyl-2,3-dihydroxychlorin]
LD50dark (L1210 cells [3]): 18000 ng/mL
LD20dark (L1210 cells [3]): 2000 ng/mL
LD50 (L1210 cells [2]; [5]): 2.42 M and 2000 ng/mL
LD50 (L1210 cells [2]; L1210 cells, Table 4): 2000 ng/mL

OC1c2nc(c(-c3ccccc3)c3ccc([nH]3)c(-c3ccccc3)c3nc(c(-c4ccccc4)c4ccc([nH]4)c2-c2ccccc2)C(O)C3O)C1O (stereo not shown) [Compound 29, H2TPB(OH)4]
LD50dark (L1210 cells [3]): 7500 ng/mL
LD20dark (L1210 cells [3]): 2500 ng/mL
LD50 (L1210 cells [2]; [5]): 1.03 M and 700 ng/mL
LD50 (L1210 cells [2]; L1210 cells, Table 4): 700 ng/mL

COc1cc(OC)c(-c2c3nc(c(-c4c(OC)cc(OC)cc4OC)c4ccc([nH]4)c(-c4c(OC)cc(OC)cc4OC)c4nc(c(-c5c(OC)cc(OC)cc5OC)c5ccc2[nH]5)C(O)C4O)C(O)C3O)c(OC)c1 (stereo not shown) [Compound 30, T(o,p,o′-OCH3)PB(OH)4]
LD50dark (L1210 cells [3]): 18000 ng/mL
LD20dark (L1210 cells [3]): 1200 ng/mL
LD50 (L1210 cells [2]; [5]): 18 ng/mL
LD50 (L1210 cells [2]; L1210 cells, Table 4): 18 ng/mL

Oc1cccc(-c2c3nc(c(-c4cccc(O)c4)c4ccc([nH]4)c(-c4cccc(O)c4)c4nc(c(-c5cccc(O)c5)c5ccc2[nH]5)CC4)C=C3)c1 [Tetra(m-hydroxyphenyl)chlorin]
recurrence (tumor): 10%
side effects (tumor): extended skin sensitivity, severe chest pains and loss of appetite
tumor necrosis (tumor): 90%
LD50 (tumors [4]; in vivo bioassays): 3 mg/kg
times more effective than HpD in destroying tumors (tumors [4]; in vivo): 25–30

CC1=C(CCC(=O)O)c2cc3[nH]c(cc4nc(cc5[nH]c(cc1n2)c(C)c5C(C)O)C(C)=C4C(C)O)c(C)c3CCC(=O)O (stereo not shown) [hematoporphyrin]
complexed by serum proteins (serum proteins): at least 95%

T(p-OCH3)PC(OH)2 [Compound 14]
LD50dark (L1210 cells [3]): >20000 ng/mL
LD20dark (L1210 cells [3]): 9000 ng/mL
LD50 (L1210 cells [2]; [5]): 7.81 M and 6000 ng/mL
LD50 (L1210 cells [2]; L1210 cells, Table 4): 6000 ng/mL

T(p-OCOEt)PC(OH)2 [Compound 13]
LD50dark (L1210 cells [3]): 20000 ng/mL
LD20dark (L1210 cells [3]): 8000 ng/mL
LD50 (L1210 cells [2]; L1210 cells, Table 4): 1000 ng/mL
